Experimental data reported in US9963445B2, “Chemical compounds” (SYNGENTA PARTICIPATIONS AG, priority 2013, dated 2018).

What was measured:
Type in all cases: in vivo
Setaria faberi [1] = assay: Pre-emergence herbicidal activity, glasshouse pot test; details: pre-emergence spray, rate 1000 g/ha, evaluated after 13 days, scale 0-5
How it was run: (§1)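 Damage score 0–5 (5 = total damage) read 13 d after spraying. Pots sown, sprayed pre-emergence at day 1 with aqueous spray from acetone/water 50:50 + 0.5% Tween 20 formulation; glasshouse 24/16 °C, 14 h light, 65% RH.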

Echinochloa crus-galli [2] = assay: as above; details: pre-emergence spray, rate 1000 g/ha, evaluated after 13 days, scale 0-5
How it was run: as §1

Alopecurus myosuroides [3] = assay: as above; details: pre-emergence spray, rate 1000 g/ha, evaluated after 13 days, scale 0-5
How it was run: as §1

zea mays [4] = assay: as above; details: pre-emergence spray, rate 1000 g/ha, evaluated after 13 days, scale 0-5
How it was run: as §1

Abutilon theophrasti [5] = assay: as above; details: pre-emergence spray, rate 1000 g/ha, evaluated after 13 days, scale 0-5
How it was run: as §1

Amaranthus retroflexus [6] = assay: as above; details: pre-emergence spray, rate 1000 g/ha, evaluated after 13 days, scale 0-5
How it was run: as §1

Setaria faberi [7] = assay: Post-emergence herbicidal activity, glasshouse pot test; set-up: key: 0 = no damage to plant, 5 = total damage to plant; details: Application post-emergence, rate 1000 g/ha, evaluated after 13 days
How it was run: (§2)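 Test solution: technical active ingredient in acetone/water (50:50) containing 0.5% Tween 20, applied as an aqueous spray to 8-day-old plants. Evaluation at 13 days, 0–5 damage scale.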

Echinochloa crus-galli [8] = assay: as above; set-up: key: 0 = no damage to plant, 5 = total damage to plant; details: Application post-emergence, rate 1000 g/ha, evaluated after 13 days
How it was run: as §2

Alopecurus myosuroides [9] = assay: as above; set-up: key: 0 = no damage to plant, 5 = total damage to plant; details: Application post-emergence, rate 1000 g/ha, evaluated after 13 days
How it was run: as §2

zea mays [10] = assay: as above; set-up: key: 0 = no damage to plant, 5 = total damage to plant; details: Application post-emergence, rate 1000 g/ha, evaluated after 13 days
How it was run: as §2

Abutilon theophrasti [11] = assay: as above; set-up: key: 0 = no damage to plant, 5 = total damage to plant; details: Application post-emergence, rate 1000 g/ha, evaluated after 13 days
How it was run: as §2

Amaranthus retroflexus [12] = assay: as above; set-up: key: 0 = no damage to plant, 5 = total damage to plant; details: Application post-emergence, rate 1000 g/ha, evaluated after 13 days
How it was run: as §2

Row | Compound | SETFA damage score, application pre-emergence (Setaria faberi [1]) | ECHCG damage score, application pre-emergence (Echinochloa crus-galli [2]) | ALOMY damage score, application pre-emergence (Alopecurus myosuroides [3]) | ZEAMX damage score, application pre-emergence (zea mays [4]) | ABUTH damage score, application pre-emergence (Abutilon theophrasti [5]) | AMARE damage score, application pre-emergence (Amaranthus retroflexus [6]) | SETFA herbicidal damage score (Setaria faberi [7]) | ECHCG herbicidal damage score (Echinochloa crus-galli [8]) | ALOMY herbicidal damage score (Alopecurus myosuroides [9]) | ZEAMX herbicidal damage score (zea mays [10]) | ABUTH herbicidal damage score (Abutilon theophrasti [11]) | AMARE herbicidal damage score (Amaranthus retroflexus [12])
1 | COC1=C(C)C(O)N(c2cc(C(C)(C)C)c(-c3ccc(F)nc3)nn2)C1=O (stereo not drawn) [BI30] | 5 | 5 | 4 | 4 | 5 | 5 | 5 | 5 | 5 | 4 | 5 | 5
2 | COC1=C(C)C(O)N(c2cc(C(C)(C)C)c(N3CC(F)(F)C3)nn2)C1=O (stereo not drawn) [BI31] | 5 | 4 | 4 | 3 | 5 | 5 | 5 | 5 | 5 | 4 | 5 | 5
3 | COC1=C(C)C(O)N(c2cc(C)c(-c3cnn(C)c3)nn2)C1=O (stereo not drawn) [BI33] | 0 | 0 | 0 | 0 | 0 | 0 | 2 | 2 | 2 | 1 | 0 | 4
4 | COC1=C(OC)C(O)N(c2cc(C)c(OC)nn2)C1=O (stereo not drawn) [BK1] | 4 | 4 | 4 | 2 | 4 | 5 | 5 | 5 | 4 | 3 | 5 | 5
5 | COC1=C(OC)C(O)N(c2ccc(C(F)(F)F)nn2)C1=O (stereo not drawn) [BK2] | 0 | 0 | 0 | 0 | 0 | 0 | 1 | 1 | 1 | 0 | 1 | 1
6 | CC1=C(Cl)C(=O)N(c2cc(C(C)(C)C)ncn2)C1O (stereo not drawn) [CF2] | 4 | 4 | 4 | 3 | 5 | 5 | 5 | 5 | 5 | 5 | 5 | 5
7 | CC1=C(Cl)C(=O)N(c2cc(C(F)(F)F)ncn2)C1O (stereo not drawn) [CF3] | 3 | 4 | 3 | 1 | 5 | 3 | 5 | 5 | 5 | 4 | 5 | 3
8 | CC1=C(Cl)C(=O)N(c2cc(C3CC3)ncn2)C1O (stereo not drawn) [CF4] | 5 | 4 | 3 | 1 | 5 | 5 | 5 | 5 | 5 | 2 | 5 | 5
9 | CC1=C(Cl)C(=O)N(c2cc(OC(C)C)ncn2)C1O (stereo not drawn) [CF5] | 5 | 3 | 3 | 2 | 4 | 4 | 5 | 5 | 4 | 2 | 5 | 4
10 | C/C=C/c1cc(N2C(=O)C(Cl)=C(C)C2O)ncn1 (stereo not drawn) [CF6] | 2 | 3 | 2 | 0 | 0 | 2 | 4 | 4 | 3 | 0 | 4 | 2
11 | CCC1=C(Cl)C(=O)N(c2cc(C(C)(C)C#N)ncn2)C1O (stereo not drawn) [CF10] | 4 | 4 | 2 | 4 | 5 | 5 | 5 | 5 | 5 | 5 | 5 | 5
12 | CCOC(=O)C(C)(C)c1cc(N2C(=O)C(Cl)=C(C)C2O)ncn1 (stereo not drawn) [CF11] | 4 | 5 | 2 | 2 | 5 | 4 | 5 | 5 | 5 | 3 | 5 | 2
13 | CC1=C(Cl)C(=O)N(c2cc(C#N)ncn2)C1O (stereo not drawn) [CF13] | 0 | 0 | 0 | 1 | 0 | 0 | 3 | 1 | 3 | 1 | 2 | 2
14 | CC1=C(Cl)C(=O)N(c2cc(C(C)(C)C#N)ncn2)C1O (stereo not drawn) [CF14] | 5 | 5 | 3 | 2 | 5 | 5 | 5 | 5 | 5 | 5 | 5 | 5
15 | CC1=C(Cl)C(=O)N(c2cc(C(C)(F)F)ncn2)C1O (stereo not drawn) [CF15] | 5 | 5 | 3 | 2 | 5 | 5 | 5 | 5 | 4 | 4 | 5 | 5
16 | CCN(C)c1cc(N2C(=O)C(Cl)=C(C)C2O)ncn1 (stereo not drawn) [CF16] | 4 | 2 | 1 | 1 | 2 | 2 | 5 | 5 | 4 | 1 | 3 | 3
